This note sets out measurements from patent publication US20120059240A1, “METHOD FOR PREPARATION OF MICELLAR HYBRID NANOPARTICLES FOR THERAPEUTIC AND DIAGNOSTIC APPLICATIONS AND COMPOSITIONS THEREOF” (MASSACHUSETTS INSTITUTE OF TECHNOLOGY, priority 2008, published 2012).

In the test the test system is MDA-MB-435 human carcinoma cells. The test can be described thus: Intracellular drug delivery of DOX (fluorescence microscopy). Type of test: cell-based. The note with it: after 30 min of incubation. How it is done: For in vitro studies, MDA-MB-435 human carcinoma cells were maintained in Dulbecco's Modified Eagle's Medium (DMEM) supplemented with 10% fetal bovine serum (FBS) and 100 μg/ml penicillin-streptomycin. For fluorescence microscopy, the cells (3000 cells per well) were seeded into 8-well chamber slides (Lab-Tek) overnight. The cells were then incubated with 50 μg of MHN or F3-MHN per well for 2 h (for intracellular targeting) and 50 μg of DOX-loaded F3-MHN (0.093 mg DOX per mg MHN) or 4.5 μg of free DOX (equivalent with DOX amount for DOX-loaded F3-MHN) physically mixed with 50 μg of F3-MHN per well for 30 min, 2 h, and 24 h (for intracellular drug delivery) at 37° C. in the presence of 10% FBS. For the intracellular targeting study, the cells were observed without any fixation using an inverted fluorescence microscope (Nikon, Tokyo, Japan). For the intracellular drug delivery study, the cells were fixed with 4% paraformaldehyde for 20 min, mounted in Vectashield Mounting Medium with 4′,6-diamidino-2-phenylindole (DAPI; Vector Laboratories, Burlingame, Calif.), and observed with a fluorescence microscope. […]

Regarding `COc1cccc2c1C(=O)c1c(O)c3c(c(O)c1C2=O)C[C@@](O)(C(=O)CO)C[C@@H]3O[C@H]1C[C@H](N)[C@H](O)[C@H](C)O1` [free DOX, doxorubicin], the “Location of DOX fluorescence signal in cells” value is listed as “almost all of the DOX fluorescence signal was observed in the cell nuclei”.
